# Measured values from US6302119A, “Low odor permanent waving compositions containing a disulfide” (priority 1999, dated 2001).
# Entries after “also recorded” stand apart in the source; their conditions may differ.
# How the values were obtained:
# [1] = thiol; cited from earlier work
# [2] = cited from earlier work; for odor: permanent wave; for waving performance: compared to TGA where stated
# [3] = in vivo; cited from earlier work
# [4] = gas chromatography; waving compositions; cited from earlier work
# [5] = Odor evaluation by 3-4 panelists of activator, waving composition and hair tresses; settings: for Odor rating of waving composition (with activator): GMT alone 3.6; for Odor of hair rating: GMT alone 2.8; for Odor rating of activator (GMT + additive): GMT alone 3.8; for odor effect: additive in GMT, concentration not specified
# Protocol: The disulfide or thiol additive was added in the concentration indicated in Tables 3 and 4, to 200 g of neat glyceryl monothioglycolate (GMr) in a 250 mL beaker.
# Odor evaluation was conducted by 3-4 panelists who rated the odors on a scale of 1-5 where 1=no malodor and 5=extreme malodor. […] To this solution was added two tresses of dark brown, virgin hair (1 inch wide, 6 inches long), that had been washed with a 10% solution of SLS and soaked in synthetic sweate^8 at 37° C. for 17 hr, then lightly rinsed. The beaker containing the GMT activator was covered with foil and was allowed to sit for 5 to 10 minutes prior to odor evaluation. The tresses were then allowed to process in the wave composition for 20 minutes at room temperature in a covered beaker. The tresses were rinsed with tap water, towel blotted, then added to 80 mL of Matrix Opticurl Rebonding Neutralizer and processed for 5 minutes. After rinsing, the damp hair was evaluated for odor.
# 8. Recipe for synthetic sweat: 10 g sodium chloride, 1 g potassium hydrogen phosphate, 0.25 g histidine, lactic acid to adjust pH to 3.2 and water to make 1 L.
# [6] = 0.005 wt % in GMT, scale 1-5, 1 = no malodor
# [7] = 0.005 wt % in GMT, scale 1-5, 1 = no malodor, damp hair after neutralizer
# [8] = 0.005 wt % in GMT, scale 1 = no malodor, 5 = extreme malodor, average of 3-4 panelists
# [9] = 0.01 wt % in GMT, scale 1-5, 1 = no malodor
# [10] = 0.1 wt % in GMT, scale 1-5, 1 = no malodor
smiles,measurement,setting,value
NCCS [Cysteamine],pKa,[1],8.6
same,odor,[2],likened to burnt popcorn or corn chips
"O=C(CS)OCC(O)CO (centres unmarked) [GMT, Glyceryl monothioglycolate]",pKa,[1],7.8
same,skin irritation,[3],causes skin irritation in some people
same,odor,[2],"more pronounced from GMT (glyceryl monothioglycolate) acid waves, than from ATG (ammonium thioglycolate) alkaline waves"
CC(S)C(=O)O (centres unmarked) [Thiolactic acid],toxicology / mildness,[3],milder on the epidermis
same,waving performance,[2],less efficient than TGA
O=C(O)CS [ammonium thioglycolate],hydrogen sulfide in headspace,[4],ppm levels
N[C@@H](CS)C(=O)O [cysteine],skin irritation,[3],is an irritant
same,waving performance,[2],produces weaker curls than TGA
CC(C)CCCCCOC(=O)CSSCC(=O)OCCCCCC(C)C [di-i-octyldithiodiglycolate],odor reduction,[5]; 0.005%,"removed the sulfur odor from GMT without adding the petroleum odor of the disulfide; also recorded: better than those were from the i-octylthioglycolate; also recorded: the waving composition and the hair smell more neutral, and less chemical than the other solutions; also recorded: essentially no odor left on the hair"
same,"panelist preference vs GMT alone, formulation odor and post-perm hair odor","[5]; 0.005% in GMT, duplicate experiments",all panelists preferred the GMT containing 0.005% disulfide compared to GMT alone
same,Odor rating of waving composition (with activator),[5]; [6],2.1
same,Odor of hair rating,[5]; [7],1.1
same,Odor rating of activator (GMT + additive),[5]; [8],2.2
same,odor reduction / odor detected,[5]; 0.01%,comparable odor results; also recorded: petroleum-like sulfur smell of the disulfide itself
same,Odor of hair rating,[5]; [9],1.8
same,Odor rating of waving composition (with activator),[5]; [9],3.0
same,Odor rating of activator (GMT + additive),[5]; [9],2.5
same,Odor of hair rating,[5]; [10],2.8
same,Odor rating of waving composition (with activator),[5]; [10],2.3
same,Odor rating of activator (GMT + additive),[5]; [10],2.5
same,odor effect,[5],reduces the thiol odor associated with a GMT wave in all three categories evaluated
CCCCOC(=O)CSSCC(=O)OCCCC [di-n-butyldithiodiglycolate],Odor rating of waving composition (with activator),[5]; [6],2.0
same,Odor of hair rating,[5]; [7],3.5
same,Odor rating of activator (GMT + additive),[5]; [8],2.0
same,Odor of hair rating,[5]; [9],4
same,Odor rating of waving composition (with activator),[5]; [9],3.8
same,Odor rating of activator (GMT + additive),[5]; [9],2.8
same,odor effect,[5]; listed as Di-butyldithiodiglycolate,effectively lowers odor in the activator and in the waving composition
same,odor effect,[5]; listed as dibutyldithioglycolate,less of an odor reducing effect compared to di-i-octyldithiodiglycolate
same,post-perm odor on hair,[5]; vs original GMT odor,leave a sulfur malodor on the hair that is more disagreeable than the original GMT odor
"CCCCCCCSSCCCCCCC [di-n-heptyldisulfide, di-n-heptyl disulfide]",Odor rating of waving composition (with activator),[5]; [6],5
same,Odor rating of activator (GMT + additive),[5]; [8],5
same,Odor rating of waving composition (with activator),[5]; [9],5
same,Odor rating of activator (GMT + additive),[5]; [9],5
same,odor effect,[5],increased malodor compared to non-disulfide containing formulations
same,odor effect,[5]; listed as diheptyldisulfide,produces an odor itself that is more disagreeable than the GMT odor alone
O=C(O)CS [thioglycolic acid],toxicology / mildness,[3],good toxicology
same,waving performance,[2],good performance
same,odor,[2],unpleasant odor
